Experimental data from article PMC8080589, “Modulation of αVβ6 integrin in osteoarthritis-related synovitis and the interaction with VTN(381–397 a.a.) competing for TGF-β1 activation” (Experimental & Molecular Medicine, 2021).
Ends that are not written are not given here.

Columns and labels:
[1] = tested on: αV integrin subunit expression, human fibroblast-like synoviocytes (FLSs); experiment: αV subunit expression in FLSs by western blot after stimulation; format: cell-based; conditions: OA FLSs, western blot normalized to GAPDH; IL-1β, IL-6, TNF-α 10 ng/mL 3 or 7 days; prednisolone, dexamethasone 1 μM 3 or 7 days; HMGB1 10, 50, 100 ng/mL 3 days; S100A9, S100A12 100, 200 ng/mL 3 days or 24 h; AGE-BSA 50, 100, 200 μg/mL 3 days or 24 h; menadione 25–50–100 μM 3 h; H2O2 100–200–400 μM 2 h
Protocol: (§1) Synovial membranes were obtained from 22 OA patients (14 females, 8 males; mean age 69.8 ± 9.6 years, BMI 30.9 ± 6.8) during knee replacement, and primary synovial fibroblasts were isolated as explained previously. The research ethics committee of CHU de Liege (Belgium) approved the study, and the patient gave informed consent to allow research procedures on samples. Human fibroblast-like synoviocytes (FLSs) were then cultured in DMEM supplemented with 10% FBS, 1% Pen/Strep, and 1% L-glutamine (all from Lonza; Basel, Switzerland) at 37 °C in an atmosphere of 5% CO2. In a plate, 5 × 10^4 FLSs were stimulated with different compounds to analyze the modulation of αVβ6: (i) TGF-β1, TNF-α, IL-1β, or IL-6 were used for 3 or 7 days at a concentration of 10 ng/mL; (ii) among the danger-associated molecular patterns, high-mobility group box 1 (HMGB1) was tested at 10, 50, and 100 ng/mL for 3 days, while S100A9 and S100A12 were tested at 100 and 200 ng/mL for 3 days or 24 h; (iii) advanced glycation end product (AGE-BSA) was tested at 50, 100, and 200 μg/mL for 3 days or 24 h; (iv) prednisolone and dexamethasone were used at 1 μM for 3 or 7 days; and (v) menadione or H2O2 was used to induce oxidative stress at 25–50–100 μM (3 h) and 100–200–400 μM (2 h), respectively, without FBS in the medium.
(§2) The expression of αV and β6 subunits and α-SMA in FLSs was evaluated by western blot analysis. Cells were scraped from plates and lysed with lysis buffer (25 mM HEPES, 150 mM NaCl, 0.5% Triton, 10% glycerol, 1 mM dithiothreitol) containing phosphatase inhibitors (25 mM β-glycerophosphate, 1 mM Na3VO4, and 1 mM NaF) and complete protease inhibitor mixture (Roche Applied Science; Penzberg, Germany). Total proteins were separated by 10% SDS–PAGE gels (12% for α-SMA) and transferred onto PVDF membranes. The membranes were then incubated with anti-αV polyclonal antibody (1:250 dilution) (Cell Signaling Technology; Boston, MA, USA), anti-β6 polyclonal antibody (1:1000 dilution) (Abcam; Cambridge, UK) or anti-α-SMA monoclonal antibody (Agilent; Santa Clara, CA, USA; 1:1000 dilution). HRP-conjugated anti-rabbit antibody (1:1000 dilution) (Cell Signaling Technology) was used as the secondary antibody. Immunoblots were developed using the ECL chemiluminescent detection system. Rabbit anti-glyceraldehyde 3-phosphate dehydrogenase (GAPDH) (Merck) or rabbit anti-heat shock protein 90 (Hsp90; Santa Cruz) was used as loading controls at a dilution of 1:10,000 or 1:200, respectively. Values of optical intensity were normalized to GAPDH or Hsp90 levels. Data were analyzed by paired Wilcoxon test; a p-value < 0.05 was considered statistically significant. Statistical analysis was performed with GraphPad Prism 6 software (San Diego, CA, USA).
Supplementary information SI3.
Variation of αV and β6 expression in human fibroblast-like synoviocytes after stimulation with different compounds. Time of stimulation and employed substances are indicated. The graphs represent αV and β6 expression before and after stimulation, obtained by western blot. Values were normalized to GAPDH and analysed by paired Wilcoxon test.
IL-1β 10 ng/mL 3 days IL-6 10 ng/mL 3 daysIL-6 Prednisolone 1µM 3 daysPrednisolone […]
Dexamethasone 1µM 3 days TNF-α 10 ng/mL 3 days TGF-β 10 ng/mL 3 days
(1 picture or pasted object on this page, not shown here)
0.0 control IL-6 0.0 control PRE […]

[2] = tested on: β6 integrin subunit expression, human fibroblast-like synoviocytes (FLSs); experiment: β6 subunit expression in FLSs by western blot after stimulation; format: cell-based; conditions: OA FLSs, western blot normalized to GAPDH; IL-1β, IL-6, TNF-α 10 ng/mL 3 or 7 days; prednisolone, dexamethasone 1 μM 3 or 7 days; HMGB1 10, 50, 100 ng/mL 3 days; S100A9, S100A12 100, 200 ng/mL 3 days or 24 h; AGE-BSA 50, 100, 200 μg/mL 3 days or 24 h; menadione 25–50–100 μM 3 h; H2O2 100–200–400 μM 2 h
Protocol: as §1, §2
IL-1β 10 ng/mL 3 days IL-6 10 ng/mL 3 daysIL-6 Prednisolone 1µM 3 daysPrednisolone
0.0 control IL-6 0.0 control PRE
Dexamethasone 1µM 3 daysDexamethasone TNF-α 10 ng/mL 3 days AGE 50 µg/mL 24 h

integrin αVβ6 = molecular target: T1, integrin αVβ6 (Homo sapiens, UniProt P06756+P18564); experiment: Competition study, 125ISIB-echistatin vs ligands on coated αVβ6; format: binding; conditions: competition with 20 nM 125ISIB-echistatin, recombinant human αVβ6 coated at 1.8 µg/mL, IBB pH 7.4 / 0.5% BSA, 2 h room temperature, duplicate wells, gamma counter, five-parameter logistic
T1 construct: purchased R&D System; Minneapolis, MN, USA
T1 sequence (P06756 31-992 limits assumed): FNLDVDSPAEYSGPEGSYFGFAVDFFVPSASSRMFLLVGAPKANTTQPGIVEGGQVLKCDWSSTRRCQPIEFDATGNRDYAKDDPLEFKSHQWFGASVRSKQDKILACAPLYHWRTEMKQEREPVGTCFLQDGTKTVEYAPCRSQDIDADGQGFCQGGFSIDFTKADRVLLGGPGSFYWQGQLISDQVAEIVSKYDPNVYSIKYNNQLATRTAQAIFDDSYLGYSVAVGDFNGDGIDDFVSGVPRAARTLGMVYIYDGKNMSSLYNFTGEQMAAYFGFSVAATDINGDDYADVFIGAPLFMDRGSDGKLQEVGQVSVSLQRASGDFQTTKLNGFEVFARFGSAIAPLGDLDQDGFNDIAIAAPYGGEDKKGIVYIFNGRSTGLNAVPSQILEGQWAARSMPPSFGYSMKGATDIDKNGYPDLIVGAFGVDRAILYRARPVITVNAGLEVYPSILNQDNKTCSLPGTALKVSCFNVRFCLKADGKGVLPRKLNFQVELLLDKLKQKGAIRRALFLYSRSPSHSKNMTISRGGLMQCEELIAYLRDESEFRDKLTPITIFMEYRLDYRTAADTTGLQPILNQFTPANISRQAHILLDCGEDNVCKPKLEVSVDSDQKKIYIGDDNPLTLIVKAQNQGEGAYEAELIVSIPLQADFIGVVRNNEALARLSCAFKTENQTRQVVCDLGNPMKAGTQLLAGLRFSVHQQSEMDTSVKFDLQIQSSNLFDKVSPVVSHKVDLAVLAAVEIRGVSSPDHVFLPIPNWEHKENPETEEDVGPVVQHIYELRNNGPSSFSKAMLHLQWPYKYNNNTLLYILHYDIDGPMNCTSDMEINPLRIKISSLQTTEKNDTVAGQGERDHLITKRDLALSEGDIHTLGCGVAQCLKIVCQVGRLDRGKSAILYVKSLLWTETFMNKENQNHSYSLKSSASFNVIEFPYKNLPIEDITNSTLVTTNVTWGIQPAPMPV
T1 sequence (P18564 22-707 limits assumed): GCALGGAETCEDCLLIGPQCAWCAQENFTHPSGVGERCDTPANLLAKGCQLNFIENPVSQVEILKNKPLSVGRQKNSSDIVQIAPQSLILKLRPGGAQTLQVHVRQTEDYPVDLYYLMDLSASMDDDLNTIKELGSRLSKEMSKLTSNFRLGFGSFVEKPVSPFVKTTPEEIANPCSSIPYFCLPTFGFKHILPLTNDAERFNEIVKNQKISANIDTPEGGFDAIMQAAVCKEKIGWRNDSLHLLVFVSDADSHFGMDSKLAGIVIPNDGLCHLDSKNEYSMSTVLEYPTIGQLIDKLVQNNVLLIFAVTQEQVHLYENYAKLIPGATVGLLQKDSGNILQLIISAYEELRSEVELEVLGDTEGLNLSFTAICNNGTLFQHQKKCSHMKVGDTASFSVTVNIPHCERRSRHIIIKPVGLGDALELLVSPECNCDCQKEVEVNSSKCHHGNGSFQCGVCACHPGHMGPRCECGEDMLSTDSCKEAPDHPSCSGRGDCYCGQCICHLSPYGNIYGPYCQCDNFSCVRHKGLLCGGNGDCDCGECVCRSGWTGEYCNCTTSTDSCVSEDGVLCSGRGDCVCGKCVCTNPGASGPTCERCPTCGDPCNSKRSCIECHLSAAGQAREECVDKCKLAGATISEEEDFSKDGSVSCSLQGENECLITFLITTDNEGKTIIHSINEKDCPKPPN
Protocol: (§3) A competition study was performed to investigate the interaction of VTN(381–397 a.a.) with five different integrins. Radiolabeled echistatin, a disintegrin known to bind integrin receptors, was used as a tracer for the binding assays. Lyophilized echistatin was provided by Bachem (Bubendorf, Switzerland) and radiolabeled by conjugation with a radioiodinated benzoate (^125ISIB) to the epsilon amino group of lysine side chains. For the five integrins, α5β1, αVβ1, αVβ3, αVβ5, and αVβ6 (R&D System; Minneapolis, MN, USA), a solution at 1.8 µg/mL was prepared with integrin-binding buffer (IBB; 20 mM Tris pH 7.4, 150 mM NaCl, 2 mM CaCl2, 1 mM MgCl2, 1 mM MnCl2). Nunc Maxisorp Module plates were coated overnight at 4 °C with integrin complex at 1.8 µg/mL. After the wells were washed with sample buffer (IBB, 0.5% BSA), blocking solution (IBB, 2% BSA) was added, and the microplate was incubated for 2 h at room temperature. The wells were then washed three times with IBB/0.5% BSA. Then, ^125ISIB-echistatin was diluted in sample buffer to fixed concentrations of 4, 4, 8, 8, and 20 nM for α5β1, αVβ1, αVβ3, αVβ5, and αVβ6 competition studies, respectively. The ^125ISIB-echistatin was mixed with sample buffer at a ratio of 1:1 (total binding = control well) or with increasing concentrations of ligands (Supplementary information SI1) [complete VTN, VTN(381–397 a.a.), VTN(365–381 a.a.)] at a ratio 1:1 and added to wells in duplicate. We used 1,4,7-triazacyclononane-1,4,7-triacetic acid (NOTA) as a negative control. […] After rinsing, bound radioactivity was quantified using a gamma counter. The percentage of relative binding of radiolabeled echistatin was calculated as follows: radioactivity in the test well*100/radioactivity in the reference well. […] For comparison of the potency of ligands in inhibiting bound ^125ISIB-echistatin for different integrin complexes, the half-maximal inhibitory concentration (IC50) was calculated. The IC50 value was determined by constructing a dose–response curve and examining the effect of different concentrations of ligands on ^125ISIB-echistatin binding. […]
To determine if VTN(381–397 a.a.) could interact with integrins, we investigated its ability to compete with radiolabeled echistatin for binding to five different integrin complexes: α5β1, αVβ1, αVβ3, αVβ5 and αVβ6. […] First, the binding affinity of echistatin to the five integrins was measured by determining the equilibrium dissociation constant (KD). […] The fixed concentration of radiolabeled echistatin was determined according to its KD value. For each ligand concentration, the relative binding of ^125ISIB-echistatin to coated integrins was then measured, and values were plotted versus the logarithm of ligand concentration.

integrin αVβ3 = molecular target: T2, integrin αVβ3 (Homo sapiens, UniProt P05106+P06756); experiment: Competition study, 125ISIB-echistatin vs ligands on coated αVβ3; format: binding; conditions: competition with 8 nM 125ISIB-echistatin, recombinant human αVβ3 coated at 1.8 µg/mL, IBB pH 7.4 / 0.5% BSA, 2 h room temperature, duplicate wells
T2 construct: purchased R&D System; Minneapolis, MN, USA
T2 sequence (P06756 31-992 limits assumed): as the sequence (P06756 31-992 limits assumed) above
T2 sequence (P05106 27-718 limits assumed): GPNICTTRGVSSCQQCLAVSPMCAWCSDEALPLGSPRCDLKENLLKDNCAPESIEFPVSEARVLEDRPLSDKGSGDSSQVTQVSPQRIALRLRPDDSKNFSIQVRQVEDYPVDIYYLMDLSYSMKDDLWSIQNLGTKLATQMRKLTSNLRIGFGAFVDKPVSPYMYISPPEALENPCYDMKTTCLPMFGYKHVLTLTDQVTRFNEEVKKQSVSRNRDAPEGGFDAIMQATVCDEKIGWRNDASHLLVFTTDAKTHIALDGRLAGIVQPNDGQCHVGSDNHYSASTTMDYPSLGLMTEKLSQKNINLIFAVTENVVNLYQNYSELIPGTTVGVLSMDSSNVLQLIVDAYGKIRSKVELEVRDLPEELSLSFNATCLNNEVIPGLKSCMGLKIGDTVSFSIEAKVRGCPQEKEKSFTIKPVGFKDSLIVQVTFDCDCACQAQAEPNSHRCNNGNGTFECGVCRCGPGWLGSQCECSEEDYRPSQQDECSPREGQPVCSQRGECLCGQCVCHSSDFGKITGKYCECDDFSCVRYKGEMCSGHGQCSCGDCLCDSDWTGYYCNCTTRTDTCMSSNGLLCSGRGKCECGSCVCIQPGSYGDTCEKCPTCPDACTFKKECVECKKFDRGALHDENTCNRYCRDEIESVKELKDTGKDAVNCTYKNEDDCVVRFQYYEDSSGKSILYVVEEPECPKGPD
Protocol: as §3, with “µg/mL.” for “µg/mL. After the wells were washed with sample buffer (IBB, 0.5% BSA), blocking solution (IBB, 2% BSA) was added, and the microplate was incubated for 2 h at room temperature. The wells were then washed three times with IBB/0.5% BSA. Then, ^125ISIB-echistatin was diluted in sample buffer to fixed concentrations of 4, 4, 8, 8, and 20 nM for α5β1, αVβ1, αVβ3, αVβ5, and αVβ6 competition studies, respectively. The ^125ISIB-echistatin was mixed with sample buffer at a ratio of 1:1 (total binding = control well) or with increasing concentrations of ligands (Supplementary information SI1) [complete VTN, VTN(381–397 a.a.), VTN(365–381 a.a.)] at a ratio 1:1 and added to wells in duplicate. We used 1,4,7-triazacyclononane-1,4,7-triacetic acid (NOTA) as a negative control.”

integrin αVβ5 = molecular target: T3, integrin αVβ5 (Homo sapiens, UniProt P06756+P18084); experiment: Competition study, 125ISIB-echistatin vs ligands on coated αVβ5; format: binding; conditions: competition with 8 nM 125ISIB-echistatin, recombinant human αVβ5 coated at 1.8 µg/mL, IBB pH 7.4 / 0.5% BSA, 2 h room temperature, duplicate wells
T3 construct: purchased R&D System; Minneapolis, MN, USA
T3 sequence (P06756 31-992 limits assumed): as the sequence (P06756 31-992 limits assumed) above
T3 sequence (P18084 24-719 limits assumed): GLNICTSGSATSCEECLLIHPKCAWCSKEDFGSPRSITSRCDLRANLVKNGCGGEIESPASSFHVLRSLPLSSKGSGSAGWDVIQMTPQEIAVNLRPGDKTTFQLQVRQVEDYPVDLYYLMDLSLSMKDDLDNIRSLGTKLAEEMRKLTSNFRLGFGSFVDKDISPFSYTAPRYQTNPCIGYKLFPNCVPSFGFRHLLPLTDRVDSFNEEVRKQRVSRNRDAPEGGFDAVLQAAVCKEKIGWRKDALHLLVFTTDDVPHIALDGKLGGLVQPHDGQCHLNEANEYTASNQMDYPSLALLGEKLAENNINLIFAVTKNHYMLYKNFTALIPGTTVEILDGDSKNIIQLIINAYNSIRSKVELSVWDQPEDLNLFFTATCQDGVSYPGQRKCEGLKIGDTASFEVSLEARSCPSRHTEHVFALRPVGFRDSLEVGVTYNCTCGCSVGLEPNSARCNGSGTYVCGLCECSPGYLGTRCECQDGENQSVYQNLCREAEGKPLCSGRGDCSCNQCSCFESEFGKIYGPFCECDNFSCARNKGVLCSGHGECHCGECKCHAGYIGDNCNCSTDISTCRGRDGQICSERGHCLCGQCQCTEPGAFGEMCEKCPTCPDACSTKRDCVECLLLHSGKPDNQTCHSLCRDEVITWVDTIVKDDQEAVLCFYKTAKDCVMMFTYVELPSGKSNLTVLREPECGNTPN
Protocol: as §3, with “µg/mL.” for “µg/mL. After the wells were washed with sample buffer (IBB, 0.5% BSA), blocking solution (IBB, 2% BSA) was added, and the microplate was incubated for 2 h at room temperature. The wells were then washed three times with IBB/0.5% BSA. Then, ^125ISIB-echistatin was diluted in sample buffer to fixed concentrations of 4, 4, 8, 8, and 20 nM for α5β1, αVβ1, αVβ3, αVβ5, and αVβ6 competition studies, respectively. The ^125ISIB-echistatin was mixed with sample buffer at a ratio of 1:1 (total binding = control well) or with increasing concentrations of ligands (Supplementary information SI1) [complete VTN, VTN(381–397 a.a.), VTN(365–381 a.a.)] at a ratio 1:1 and added to wells in duplicate. We used 1,4,7-triazacyclononane-1,4,7-triacetic acid (NOTA) as a negative control.”

Molecule: OO [H2O2]
- effect on αV subunit expression [1]: none of these treatments influenced the expression levels of the αV and β6 integrin subunits
- effect on β6 subunit expression [2]: none of these treatments influenced the expression levels of the αV and β6 integrin subunits

Molecule: C[C@@H]1C[C@H]2[C@@H]3CCC4=CC(=O)C=C[C@]4(C)[C@@]3(F)[C@@H](O)C[C@]2(C)[C@@]1(O)C(=O)CO [dexamethasone]
- effect on αV subunit expression [1]: none of these treatments influenced the expression levels of the αV and β6 integrin subunits
- effect on β6 subunit expression [2]: none of these treatments influenced the expression levels of the αV and β6 integrin subunits

Molecule: CC1=CC(=O)c2ccccc2C1=O [menadione]
- effect on αV subunit expression [1]: none of these treatments influenced the expression levels of the αV and β6 integrin subunits
- effect on β6 subunit expression [2]: none of these treatments influenced the expression levels of the αV and β6 integrin subunits

Molecule: C[C@]12C=CC(=O)C=C1CC[C@@H]1[C@@H]2[C@@H](O)C[C@@]2(C)[C@H]1CC[C@]2(O)C(=O)CO [prednisolone]
- effect on αV subunit expression [1]: none of these treatments influenced the expression levels of the αV and β6 integrin subunits
- effect on β6 subunit expression [2]: none of these treatments influenced the expression levels of the αV and β6 integrin subunits

Molecule: AGE-BSA: advanced glycation end product
- effect on αV subunit expression [1]: none of these treatments influenced the expression levels of the αV and β6 integrin subunits
- effect on β6 subunit expression [2]: none of these treatments influenced the expression levels of the αV and β6 integrin subunits

Molecule: IL-1β: proinflammatory cytokine
- effect on αV subunit expression [1]: none of these treatments influenced the expression levels of the αV and β6 integrin subunits
- effect on β6 subunit expression [2]: none of these treatments influenced the expression levels of the αV and β6 integrin subunits

Molecule: IL-6: proinflammatory cytokine
- effect on αV subunit expression [1]: none of these treatments influenced the expression levels of the αV and β6 integrin subunits
- effect on β6 subunit expression [2]: none of these treatments influenced the expression levels of the αV and β6 integrin subunits

Molecule: SQRGHSRGRNQNSRRPS [VTN(381–397 a.a.)]
- IC50 (integrin αVβ6): 3200 nM

Molecule: TNF-α
- effect on αV subunit expression [1]: none of these treatments influenced the expression levels of the αV and β6 integrin subunits
- effect on β6 subunit expression [2]: none of these treatments influenced the expression levels of the αV and β6 integrin subunits

Molecule: VTN: whole VTN protein
- IC50 (integrin αVβ3): 1500 nM
- IC50 (integrin αVβ5): 130 nM
- IC50 (integrin αVβ6): 250 nM

B1: S100A9: danger-associated molecular pattern (protein, UniProt P06702 1-114, looked up)
Protein S100-A9: MTCKMSQLERNIETIINTFHQYSVKLGHPDTLNQGEFKELVRKDLQNFLKKENKNEKVIEHIMEDLDTNADKQLSFEEFIMLMARLTWASHEKMHEGDEGPGHHHKPGLGEGTP
- effect on αV subunit expression [1]: none of these treatments influenced the expression levels of the αV and β6 integrin subunits
- effect on β6 subunit expression [2]: none of these treatments influenced the expression levels of the αV and β6 integrin subunits

B2: HMGB1: danger-associated molecular pattern (protein, UniProt P09429 1-215, looked up)
High mobility group protein B1: MGKGDPKKPRGKMSSYAFFVQTCREEHKKKHPDASVNFSEFSKKCSERWKTMSAKEKGKFEDMAKADKARYEREMKTYIPPKGETKKKFKDPNAPKRPPSAFFLFCSEYRPKIKGEHPGLSIGDVAKKLGEMWNNTAADDKQPYEKKAAKLKEKYEKDIAAYRAKGKPDAAKKGVVKAEKSKKKKEEEEDEEDEEDEEEEEDEEDEDEEEDDDDE
- effect on αV subunit expression [1]: none of these treatments influenced the expression levels of the αV and β6 integrin subunits
- effect on β6 subunit expression [2]: none of these treatments influenced the expression levels of the αV and β6 integrin subunits
